Measurements from ChEMBL document CHEMBL1201862, “PubChem BioAssay data set” (2004).
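Step 1: Grow cells in 96-well plates. Step 2: Expose to compound for 48 hours at 5 concentrations. Step 3: Interpolate endpoints linearly; if unreached, use highest concentration. GI50: concentration for 50% inhibition of growth.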 Activity calls are given as the source filed them. No stated cut-off is given here; in the data, active = GI50 up to about 1.1 µM and inactive = higher.

Columns and labels:
Experiment in all cases: growth of human tumour cells (NCI), 48 h
DU-145 = system: DU-145
EKVX = system: EKVX
HCC 2998 = system: HCC 2998
HCT-15 = system: HCT-15
HOP-62 = system: HOP-62
HOP-92 = system: HOP-92
KM12 = system: KM12
MDA-N = system: MDA-N
MOLT-4 = system: MOLT-4
NCI-H226 = system: NCI-H226
NCI-H460 = system: NCI-H460
RXF 393 = system: RXF 393
SF-539 = system: SF-539
SN12C = system: SN12C
SNB-75 = system: SNB-75
SW-620 = system: SW-620
TK-10 = system: TK-10
U-251 = system: U-251
SF-295 = system: SF-295
SF-268 = system: SF-268

Which results are given for `C[n+]1c(-c2ccc(/C=N/Nc3ccnc(N/N=C/c4ccc(-c5cn6ccsc6[n+]5C)cc4)n3)cc2)cn2ccsc21`?
GI50 (DU-145): 27.7 µM (inactive); GI50 (EKVX): 18.8 µM (inactive); GI50 (HCC 2998): 31.6 µM (inactive); GI50 (HCT-15): 27.5 µM; GI50 (HOP-62): 25.9 µM (inactive); GI50 (HOP-92): 31.5 µM (inactive); GI50 (KM12): 22.1 µM (inactive); GI50 (MDA-N): 3.94 µM (inactive); GI50 (MOLT-4): 17.8 µM (inactive); GI50 (NCI-H226): 17.7 µM (inactive); GI50 (NCI-H460): 16.9 µM (inactive); GI50 (RXF 393): 21.5 µM (inactive); GI50 (SF-539): 27 µM (inactive); GI50 (SN12C): 31.5 µM (inactive); GI50 (SNB-75): 20 µM (inactive); GI50 (SW-620): 33 µM (inactive); GI50 (TK-10): 25.8 µM (inactive); GI50 (U-251): 30.9 µM (inactive)

For `CCOC(=O)c1cn(CC)c(=O)n2c1nc1ccccc12`, which GI50 (DU-145) is on record?
Its GI50 is 45.5 µM (inactive).

What about the GI50 (EKVX) of the same compound?
The GI50 was > 100 µM (inactive).

And the GI50 (HCC 2998)?
Its GI50 is 96.8 µM (inactive).

What about the GI50 (HCT-15) of the same compound?
The GI50 was 40.2 µM.

And the GI50 (HOP-62)?
The GI50 was > 100 µM (inactive).

What about the GI50 (HOP-92) of the same compound?
The GI50 was 30.1 µM (inactive).

What about the GI50 (KM12) of the same compound?
The GI50 was 59.6 µM (inactive).

What about the GI50 (MDA-N) of the same compound?
The GI50 was > 100 µM (inactive).

And the GI50 (MOLT-4)?
The GI50 was 14.1 µM (inactive).

And the GI50 (NCI-H226)?
The GI50 was 44.3 µM (inactive).

What about the GI50 (NCI-H460) of the same compound?
The GI50 was 35.4 µM (inactive).

What about the GI50 (RXF 393) of the same compound?
Its GI50 is 61.9 µM (inactive).

What about the GI50 (SF-295) of the same compound?
Its GI50 is > 100 µM (inactive).

What about the GI50 (SF-539) of the same compound?
Its GI50 is 55.5 µM (inactive).

And the GI50 (SN12C)?
The GI50 was > 100 µM (inactive).

What about the GI50 (SNB-75) of the same compound?
Its GI50 is > 100 µM (inactive).

What about the GI50 (SW-620) of the same compound?
Its GI50 is > 100 µM (inactive).

What about the GI50 (U-251) of the same compound?
The GI50 was > 100 µM (inactive).

Which results are given for `COC(=O)CC1c2ccccc2N2C(=O)Cc3c([nH]c4ccccc34)C12` (stereo unspecified)?
GI50 (DU-145): > 100 µM (inactive); GI50 (EKVX): > 100 µM (inactive); GI50 (HCC 2998): > 100 µM (inactive); GI50 (HCT-15): > 100 µM; GI50 (HOP-62): 36.5 µM (inactive); GI50 (HOP-92): 55.8 µM (inactive); GI50 (KM12): > 100 µM (inactive); GI50 (MDA-N): > 100 µM (inactive); GI50 (MOLT-4): > 100 µM (inactive); GI50 (NCI-H226): > 100 µM (inactive); GI50 (NCI-H460): > 100 µM (inactive); GI50 (RXF 393): > 100 µM (inactive); GI50 (SF-268): > 100 µM (inactive); GI50 (SF-295): 7.93 µM (inactive); GI50 (SN12C): > 100 µM (inactive); GI50 (SNB-75): > 100 µM (inactive); GI50 (SW-620): > 100 µM (inactive); GI50 (TK-10): > 100 µM (inactive); GI50 (U-251): > 100 µM (inactive)

What does the source list for `C/C(=C\C(=N\NC(=N)N)c1ccccc1)c1ccccc1`?
GI50 (DU-145): 0.406 µM (active); GI50 (HCC 2998): 0.26 µM (active); GI50 (HCT-15): 1.99 µM; GI50 (HOP-62): 0.0822 µM (active); GI50 (HOP-92): 0.716 µM (active); GI50 (KM12): 1.17 µM (inactive); GI50 (MDA-N): 0.973 µM (active); GI50 (MOLT-4): 0.261 µM (active); GI50 (NCI-H226): 1.15 µM (inactive); GI50 (NCI-H460): 2.25 µM (inactive); GI50 (RXF 393): 1.41 µM (inactive); GI50 (SF-268): 0.459 µM (active); GI50 (SF-295): 0.409 µM (active); GI50 (SF-539): 0.432 µM (active); GI50 (SN12C): 0.454 µM (active); GI50 (SNB-75): 4.28 µM (inactive); GI50 (SW-620): 0.318 µM (active); GI50 (TK-10): 1.17 µM (inactive); GI50 (U-251): 0.652 µM (active)

Which GI50 (DU-145) does the source give for `CCCCCCc1cc2cc(C(=O)NCc3ccccc3)c(=N)oc2cc1O` here?
Its GI50 is > 100 µM (inactive).

And the GI50 (EKVX)?
Its GI50 is > 100 µM (inactive).

What about the GI50 (HCC 2998) of the same compound?
Its GI50 is > 100 µM (inactive).

What about the GI50 (HCT-15) of the same compound?
Its GI50 is over 100 µM.

What about the GI50 (HOP-62) of the same compound?
The GI50 was > 100 µM (inactive).

And the GI50 (HOP-92)?
Its GI50 is > 100 µM (inactive).

And the GI50 (KM12)?
Its GI50 is > 100 µM (inactive).

What about the GI50 (MDA-N) of the same compound?
Its GI50 is > 100 µM (inactive).

And the GI50 (MOLT-4)?
The GI50 was > 100 µM (inactive).

What about the GI50 (NCI-H226) of the same compound?
Its GI50 is > 100 µM (inactive).

And the GI50 (NCI-H460)?
The GI50 was > 100 µM (inactive).

And the GI50 (RXF 393)?
Its GI50 is > 100 µM (inactive).

What about the GI50 (SF-268) of the same compound?
The GI50 was > 100 µM (inactive).

And the GI50 (SF-539)?
Its GI50 is > 100 µM (inactive).

What about the GI50 (SN12C) of the same compound?
Its GI50 is > 100 µM (inactive).

And the GI50 (SNB-75)?
Its GI50 is > 100 µM (inactive).

And the GI50 (SW-620)?
The GI50 was > 100 µM (inactive).

What about the GI50 (U-251) of the same compound?
Its GI50 is > 100 µM (inactive).

`O=c1oc2c(ccc3ccccc32)cc1C1=CSC2=NCCN12` was tested. Which GI50 (DU-145) did it give?
The GI50 was 26.5 µM (inactive).

What about the GI50 (EKVX) of the same compound?
Its GI50 is 25.5 µM (inactive).

What about the GI50 (HCC 2998) of the same compound?
The GI50 was 3.82 µM (inactive).

And the GI50 (HCT-15)?
The GI50 was 38.4 µM.

What about the GI50 (HOP-62) of the same compound?
The GI50 was 35.8 µM (inactive).

And the GI50 (HOP-92)?
Its GI50 is 24.4 µM (inactive).

And the GI50 (KM12)?
Its GI50 is 55.5 µM (inactive).

And the GI50 (MDA-N)?
The GI50 was 51.6 µM (inactive).

What about the GI50 (MOLT-4) of the same compound?
The GI50 was 34.2 µM (inactive).

What about the GI50 (NCI-H460) of the same compound?
Its GI50 is 36.7 µM (inactive).

And the GI50 (RXF 393)?
Its GI50 is 33.5 µM (inactive).

What about the GI50 (SF-268) of the same compound?
The GI50 was 57.9 µM (inactive).

And the GI50 (SF-295)?
Its GI50 is 33 µM (inactive).

And the GI50 (SF-539)?
Its GI50 is 69.7 µM (inactive).

What about the GI50 (SN12C) of the same compound?
Its GI50 is 42.4 µM (inactive).

And the GI50 (SNB-75)?
The GI50 was > 100 µM (inactive).

And the GI50 (SW-620)?
The GI50 was 29.7 µM (inactive).

What about the GI50 (TK-10) of the same compound?
Its GI50 is 49.3 µM (inactive).

And the GI50 (U-251)?
Its GI50 is 59.8 µM (inactive).
